Series [1] in a line: Pharmacokinetic parameters following intravenous administration in rats. The series is classed as in vivo. How it is done: (§1) The pharmacokinetic parameters of the compounds according to the invention were determined in male Wistar rats and/or in female beagles and/or in cynomolgus monkeys and/or in male CD-1 mice. Intravenous administration in the case of mice and rats was carried out by means of a species-specific plasma/DMSO formulation, and in the case of dogs and monkeys by means of a water/PEG400/ethanol formulation. In all species, oral administration of the dissolved substance was performed via gavage, based on a water/PEG400/ethanol formulation.
An internal standard (which may also be a chemically unrelated substance) was added to the samples of the compounds of the invention, calibration samples and qualifiers, and there followed protein precipitation by means of acetonitrile in excess. […] The supernatant was analysed by LC-MS/MS using C18 reversed-phase columns and variable mobile phase mixtures. The substances were quantified via the peak heights or areas from extracted ion chromatograms of specific selected ion monitoring experiments.
The plasma concentration/time plots determined were used to calculate the pharmacokinetic parameters such as AUC, Cmax, t1/2 (terminal half-life), F (bioavailability), MRT (mean residence time) and CL (clearance), by means of a validated pharmacokinetic calculation program. […]

Series [2] addresses T1, recombinant guanylate cyclase reporter cell line (Rattus norvegicus, UniProt P20595).
T1 construct: expressed in transfected cells
T1 sequence (P20595 1-619): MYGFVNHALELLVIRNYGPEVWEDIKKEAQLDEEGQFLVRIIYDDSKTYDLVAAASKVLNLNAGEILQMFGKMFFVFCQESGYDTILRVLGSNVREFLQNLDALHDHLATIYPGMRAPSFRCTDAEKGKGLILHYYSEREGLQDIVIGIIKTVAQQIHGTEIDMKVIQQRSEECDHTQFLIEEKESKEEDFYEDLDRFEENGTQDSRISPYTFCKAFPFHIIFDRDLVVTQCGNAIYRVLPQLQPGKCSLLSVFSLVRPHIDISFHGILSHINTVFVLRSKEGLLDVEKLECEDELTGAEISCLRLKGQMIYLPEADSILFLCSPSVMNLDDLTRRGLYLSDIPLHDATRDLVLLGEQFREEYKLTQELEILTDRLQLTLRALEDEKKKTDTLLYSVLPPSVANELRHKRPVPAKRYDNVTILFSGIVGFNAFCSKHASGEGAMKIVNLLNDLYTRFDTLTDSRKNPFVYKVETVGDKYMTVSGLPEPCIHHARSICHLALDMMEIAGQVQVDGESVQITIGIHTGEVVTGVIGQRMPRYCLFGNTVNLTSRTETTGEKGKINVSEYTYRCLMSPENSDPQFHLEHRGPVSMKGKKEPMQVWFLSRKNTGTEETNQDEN
T1 sequence (P19686 1-690 partner): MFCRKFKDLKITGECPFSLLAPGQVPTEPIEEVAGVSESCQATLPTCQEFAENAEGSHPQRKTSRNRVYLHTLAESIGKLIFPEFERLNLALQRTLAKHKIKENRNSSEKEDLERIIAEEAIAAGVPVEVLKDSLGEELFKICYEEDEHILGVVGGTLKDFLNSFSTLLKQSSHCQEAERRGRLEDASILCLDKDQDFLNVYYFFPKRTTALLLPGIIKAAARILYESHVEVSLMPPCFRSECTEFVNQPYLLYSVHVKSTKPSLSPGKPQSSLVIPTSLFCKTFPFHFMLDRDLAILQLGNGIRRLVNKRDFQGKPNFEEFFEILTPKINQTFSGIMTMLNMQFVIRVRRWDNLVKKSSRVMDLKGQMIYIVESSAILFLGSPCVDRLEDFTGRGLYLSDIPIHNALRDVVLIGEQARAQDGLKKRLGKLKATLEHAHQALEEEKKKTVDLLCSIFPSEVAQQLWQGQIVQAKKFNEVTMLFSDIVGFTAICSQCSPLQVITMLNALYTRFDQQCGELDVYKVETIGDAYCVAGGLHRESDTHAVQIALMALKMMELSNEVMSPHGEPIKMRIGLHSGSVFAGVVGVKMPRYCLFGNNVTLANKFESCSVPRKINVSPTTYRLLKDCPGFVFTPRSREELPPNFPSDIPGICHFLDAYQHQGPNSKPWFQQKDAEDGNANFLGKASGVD
Nature of the series: Effect on a recombinant guanylate cyclase reporter cell line. The series is classed as cell-based. As to conditions: in some cases mean values from individual determinations; for MEC: MEC = minimum effective concentration; for EC50: half maximal effective concentration. How it is done: The cellular activity of the compounds according to the invention was determined using a recombinant guanylate cyclase reporter cell line, as described in F. Wunder et al., Anal. Biochem. 339, 104-112 (2005).

Series [3] can be described thus: Pharmacokinetic parameters following oral administration in rats. The series is classed as in vivo. How it is done: as §1
An internal standard (which may also be a chemically unrelated substance) was added to the samples of the compounds of the invention, calibration samples and qualifiers, and there followed protein precipitation by means of acetonitrile in excess. Addition of a buffer solution matched to the LC conditions, and subsequent vortexing, was followed by centrifugation at 1000 g. The supernatant was analysed by LC-MS/MS using C18 reversed-phase columns and variable mobile phase mixtures. The substances were quantified via the peak heights or areas from extracted ion chromatograms of specific selected ion monitoring experiments.
The plasma concentration/time plots determined were used to calculate the pharmacokinetic parameters such as AUC, Cmax, t1/2 (terminal half-life), F (bioavailability), MRT (mean residence time) and CL (clearance), by means of a validated pharmacokinetic calculation program.
Since the substance quantification was performed in plasma, it was necessary to determine the blood/plasma distribution of the substance in order to be able to adjust the pharmacokinetic parameters correspondingly. For this purpose, a defined amount of substance was incubated in K3 EDTA whole blood of the species in question in a rocking roller mixer for 20 min. After centrifugation at 1000 g, the plasma concentration was measured (by means of LC-MS/MS; see above) and determined by calculating the ratio of the Cblood/Cplasma value.

Structures are written as SMILES. Counter-ions that a name gives are not always drawn.

Broadly, the EC50 is the concentration at which the effect is half-maximal.

In the case of `O=C(O)c1cnn(C2CCCN(c3cc(Cl)ccc3-c3ccc(N4CCN(CC5CC5)CC4)cc3)C2)c1C(F)(F)F` (single isomer, unassigned) [Example 7, 1-[1-[5-Chloro-2-[4-[4-(cyclopropylmethyl)piperazin-1-yl]phenyl]phenyl]-3-piperidyl]-5-(trifluoromethyl)pyrazole-4-carboxylic acid hydrochloride], the figures for the AUCnorm in series [1] and in series [3] (oral administration in rats) were 1.37 kg·h/L and 0.52 kg·h/L, respectively. Besides, the MEC in series [2] was determined as 2.0 nM. The “bioavailability in comparison to prior art (WO 2012/058132)” value in series [3] (after oral (p.o.) application) is on record as “lower bioavailability”. Also, the F in series [3] (oral administration in rats, F = bioavailability) is 37.4%.
Turning to `CNC(=O)N1CCN(c2ccc(-c3ccc(Cl)cc3N3CCCC(n4ncc(C(=O)O)c4C(F)(F)F)C3)cc2)CC1` (single isomer, unassigned) [Example 65, 1-[1-[5-Chloro-2-[4-[4-(methylcarbamoyl)piperazin-1-yl]phenyl]phenyl]-3-piperidyl]-5-(trifluoromethyl)pyrazole-4-carboxylic acid], in series [2], the MEC stood at 10.0 nM and the EC50 was 56.5 nM.
As for `COCCOC(=O)N1CCN(c2ccc(-c3ccc(Cl)cc3N3CCCC(n4ncc(C(=O)O)c4C(F)(F)F)C3)cc2)CC1` (single isomer, unassigned) [Example 62, 1-[1-[5-Chloro-2-[4-[4-(2-methoxyethoxycarbonyl)piperazin-1-yl]phenyl]phenyl]-3-piperidyl]-5-(trifluoromethyl)pyrazole-4-carboxylic acid], in series [2], the MEC amounted to 10.0 nM and the EC50 was 57.5 nM.
Consider `O=C(O)c1cnn(C2CCCN(c3cc(Cl)ccc3-c3ccc(N4CCN(C(=O)C5CC56CC6)CC4)cc3)C2)c1C(F)(F)F` (single isomer, unassigned) [Example 53, 1-[1-{4-chloro-4′-[4-(spiro[2.2]pentane-1-carbonyl)piperazin-1-yl][1,1′-biphenyl]-2-yl}piperidin-3-yl]-5-(trifluoromethyl)-1H-pyrazole-4-carboxylic acid], for which, in series [2], the MEC worked out at 10.0 nM and the EC50 is 22 nM.
For `COCCCOC(=O)N1CCN(c2ccc(-c3ccc(Cl)cc3N3CCCC(n4ncc(C(=O)O)c4C(F)(F)F)C3)cc2)CC1` (single isomer, unassigned) [Example 63, 1-[1-[5-Chloro-2-[4-[4-(3-methoxypropoxycarbonyl)piperazin-1-yl]phenyl]phenyl]-3-piperidyl]-5-(trifluoromethyl)pyrazole-4-carboxylic acid], in series [2], the MEC is given as 10.0 nM and the EC50 is 27 nM.
With `O=C(O)c1cnn(C2CCCN(c3cc(Cl)ccc3-c3ccc(N4CCN(C(=O)C56CC(F)(C5)C6)CC4)cc3)C2)c1C(F)(F)F` (single isomer, unassigned) [Example 51, 1-[1-[5-Chloro-2-[4-[4-(3-fluorobicyclo[1.1.1]pentane-1-carbonyl)piperazin-1-yl]phenyl]phenyl]-3-piperidyl]-5-(trifluoromethyl)pyrazole-4-carboxylic acid], in series [2], the MEC was 3.0 nM and the EC50 came to 9.4 nM.
On to `O=C(O)c1cnn(C2CCCN(c3cc(Cl)ccc3-c3ccc(N4CCN(CC(F)(F)F)CC4)cc3)C2)c1C(F)(F)F` (single isomer, unassigned) [Example 16, 1-[1-[5-Chloro-2-[4-[4-(2,2,2-trifluoroethyl)piperazin-1-yl]phenyl]phenyl]-3-piperidyl]-5-(trifluoromethyl)pyrazole-4-carboxylic acid], for which, in series [2], the MEC is given as 3.0 nM and the EC50 worked out at 14.4 nM.
The matching figures for `O=C(O)c1cnn(C2CCCN(c3cc(Cl)ccc3-c3ccc(N4CCN(CCC(F)F)CC4)cc3)C2)c1C(F)(F)F` (single isomer, unassigned) [Example 14, 1-[1-[5-Chloro-2-[4-[4-(3,3-difluoropropyl)piperazin-1-yl]phenyl]phenyl]-3-piperidyl]-5-(trifluoromethyl)pyrazole-4-carboxylic acid hydrochloride]: 0.3 nM and 3.1 nM.

Values taken from patent publication US20240109864A1, “SUBSTITUTED PYRAZOLYL PIPERIDINE CARBOXYLIC ACIDS” (BAYER AKTIENGESELLSCHAFT, priority 2020, published 2024).
